Here are results for 2 molecules from patent publication US12305171B2, “Compositions and methods for treating cancer” (bioAffinity Technologies, Inc., priority 2018, dated 2025).

Where two headings read alike, the source gives them in different places.

Broadly, the IC50 is the concentration that gives 50% inhibition.

What all share (format): cell-based
Data set [1] deals with A172. Description: doxorubicin cell viability, CTG assay. The settings on record: Homo sapiens, A 172, 96 h. As for the experimental part:
(§1) A172 and HCC15 cells were plated at 1200 cells/well in a 96 well plate. The next day, cells were treated with doxorubicin at the indicated concentrations. Four days after doxorubicin treatment was initiated, the cells were assayed for viability using the CTG assay. The dashed line indicates the non-linear fitting of the data to calculate an IC50 value.
(§2) A172 and HCC15 cells were plated at 1200 cells/well in a 96 well plate. The next day, cells were treated with doxorubicin at the indicated concentrations. Four days after the doxorubicin exposure was initiated, the cells were assayed for viability using the CTG assay. […] After incubating the cells with the CTG reagent, ATP levels can be indirectly measured as light production using the TECAN luminescence plate reader. As a first step, toxicity of a known chemotherapeutic drug, doxorubicin, was assayed on the cell lines of interest. Doxorubicin was used as a positive control for cell toxicity in our assay.
(§3) The cells lines were plated at 1,000 to 4,000 cells/well in a 96-well plate and treated with doxorubicin the following day. CTG activity was measured 4 days after treatment. IC50 values were calculated by GraphPad Prism Software.

Data set [2] deals with HCC15. The data set is described as follows: doxorubicin cell viability, CTG assay. The settings on record: 96 h. Here is the method: as §1, §2, §3
Another data set deals with DU145. The data set is described as follows: doxorubicin cell viability, CTG assay. The settings on record: Homo sapiens, DU-145, 96 h; DU145, Prostate; CTG 4 days after treatment. Here is the method:
as §2, §3

In the next data set the test system is GM05659. Description: doxorubicin cell viability, CTG assay. The settings on record: 96 h; GM05659, Other; CTG 4 days after treatment. Here is the method: as §2, §3
The test system of a further data set is HEK293. The data set is described as follows: doxorubicin cell viability, CTG assay. The settings on record: Homo sapiens, 96 h; HEK293, Other; CTG 4 days after treatment. Here is the method:
as §2, §3

A further data set deals with MDA-MB-435S. Description: doxorubicin cell viability, CTG assay. The settings on record: Homo sapiens, 96 h, Melanoma, CTG 4 days after treatment. Here is the method: as §2, §3
Another data set concerns NCI-H460. The data set is described as follows: doxorubicin cell viability, CTG assay. The settings on record: Homo sapiens, 96 h; NCI-H460, Lung; CTG 4 days after treatment. Here is the method: as §2, §3
The subject of data set [3] is PC3. Description: doxorubicin cell viability, CTG assay. The settings on record: Homo sapiens, PC-3, 96 h; PC3, Prostate; CTG 4 days after treatment. Here is the method:
as §2, §3

A further data set concerns U251. Description: doxorubicin cell viability, CTG assay. The settings on record: Homo sapiens, U-251, 96 h; U251, Glioblastoma; CTG 4 days after treatment. As for the experimental part:
as §2, §3

Another data set relates to GM05659 fibroblasts. Description: lentiviral shRNA knockdown of CD320 and LRP2, cell growth observation. Also on record: key: +++: cells unaffected compared to shSCR (control); ++: cells modestly affected compared to shSCR (control); +: cells significantly affected compared to shSCR (control); 0: vast majority of cells killed compared to shSCR (control). The settings on record: GM05659, normal cells. The source says: (§4) Mechanistic investigations into the selectivity of porphyrin uptake by cancer cells led to several nonobvious compounds and methods of using the compound(s). It was discovered that the knockdown of the expression of either CD320 gene or LRP2 gene or the simultaneous knockdown of the expression of CD320 gene and LRP2 gene caused cell death or inhibition of cell growth in a panel of lung cancer cell lines, compared to normal fibroblasts. The experimental outline is illustrated in FIG. 1. In these experiments, cells were plated on day 0. The next day (day 1), virus particles encoding short hairpin RNAs (shRNAs) directed to the CD320 gene and the LRP2 gene or an irrelevant shRNA control were added to the cell culture together with protamine sulfate, a reagent that facilitates cell entry of the virus particles.
(§5) FIG. 1 illustrates an experimental design for knocking down CD320 and LRP2 in a cell. Cells were plated on day 0. The next day (day 1), virus particles encoding short hairpin RNAs (shRNAs) directed at the CD320 and LRP2 mRNA or a non-targeting shRNA control were added to the cell culture together with protamine sulfate, a reagent that facilitates cell entry of the virus particles. […] Each shRNA coding sequence was also combined with a unique drug resistance gene, which would allow for selecting those cells that had taken up the shRNA; cells that had not taken up the shRNA would not survive. On day 2, drug selection was started. On day 3, the cells were harvested and plated in a new dish. Only the cells with a drug resistance gene, i.e., those cells that had taken up shRNA virus particles would survive this re-plating procedure. From day 4 on, each culture was closely observed for cell growth. Cells infected with the non-targeting negative control shRNA continued growing—data not shown.
FIGS. 2 A-C illustrates sensitivity of cancer cell lines to knockdown of CD320 and LRP2. […] The fields of cells in FIG. 2A were counted and quantified and illustrated in FIG. 2B. […]

Data set [4] relates to A172. The data set is described as above. Also on record: key: +++: cells unaffected compared to shSCR (control); ++: cells modestly affected compared to shSCR (control); +: cells significantly affected compared to shSCR (control); 0: vast majority of cells killed compared to shSCR (control). The settings on record: A172, glioblastoma.
Text: as §4, §5
(§6) The Each vector that carried a shRNA coding sequence also contained a unique drug resistance gene which would allow for selecting those cells that had taken up the shRNA as those cells that had not taken up the shRNA having the unique drug resistance gene would not survive. On day 2, drug selection was started. On day 3, the cells were harvested and plated in a new dish. Only the cells with a drug resistance gene, i.e., those cells that had taken up shRNA virus particles would survive this re-plating procedure. From day 4 on, each culture was closely observed for cell growth. The cells that were infected with the irrelevant control shRNA kept on growing as expected (since the shRNA was essentially a non-functional shRNA)—data not shown.
(§7) Additional cancer cell lines were also treated with the compounds described herein to determine whether cancer cell lines were more susceptible to growth inhibition and toxicity as compared to non-cancer cells of the same origin. Cell lines from skin, prostate, and brain cancers were screened similarly to the experimental outline in FIG. 1. Table 3 summarizes the effects of simultaneous knockdown of CD320 and LRP2 in cancer and normal cells.

A further data set has as its system DU-145. The description is as above. The settings on record: DU-145, prostate cells. Also on record: key: +++: cells unaffected compared to shSCR (control); ++: cells modestly affected compared to shSCR (control); +: cells significantly affected compared to shSCR (control); 0: vast majority of cells killed compared to shSCR (control).
Text: as §4, §5, §6, §7

In the next data set the test system is GM00701. Described as above. The settings on record: GM00701, normal cells. Also on record: key: +++: cells unaffected compared to shSCR (control); ++: cells modestly affected compared to shSCR (control); +: cells significantly affected compared to shSCR (control); 0: vast majority of cells killed compared to shSCR (control).
Text: as §4, §5, §6, §7

In another data set the test system is H157. The description is as above. Also on record: key: +++: cells unaffected compared to shSCR (control); ++: cells modestly affected compared to shSCR (control); +: cells significantly affected compared to shSCR (control); 0: vast majority of cells killed compared to shSCR (control). The settings on record: H157, lung cells.
Text: as §4, §5, §6, §7

The test system of the next data set is H1993. The data set is described as above. Also on record: key: +++: cells unaffected compared to shSCR (control); ++: cells modestly affected compared to shSCR (control); +: cells significantly affected compared to shSCR (control); 0: vast majority of cells killed compared to shSCR (control). The settings on record: H1993, lung cells.
Text: as §4, §5, §6, §7

The next data set deals with H358. Described as above. Also on record: key: +++: cells unaffected compared to shSCR (control); ++: cells modestly affected compared to shSCR (control); +: cells significantly affected compared to shSCR (control); 0: vast majority of cells killed compared to shSCR (control). The settings on record: H358, lung cells.
Text: as §4, §5, §6, §7

In data set [5] the test system is HCC15. Described as above. Also on record: key: +++: cells unaffected compared to shSCR (control); ++: cells modestly affected compared to shSCR (control); +: cells significantly affected compared to shSCR (control); 0: vast majority of cells killed compared to shSCR (control). The settings on record: HCC15, lung cells.
Text: as §4, §5, §6, §7

The next data set concerns LncAP. The data set is described as above. Also on record: key: +++: cells unaffected compared to shSCR (control); ++: cells modestly affected compared to shSCR (control); +: cells significantly affected compared to shSCR (control); 0: vast majority of cells killed compared to shSCR (control). The settings on record: prostate cells.
Text: as §4, §5, §6, §7

The next data set has as its system MDA-MB-4353. Described as above. Also on record: key: +++: cells unaffected compared to shSCR (control); ++: cells modestly affected compared to shSCR (control); +: cells significantly affected compared to shSCR (control); 0: vast majority of cells killed compared to shSCR (control). The settings on record: MDA-MB-4353, melanoma cells.
Text: as §4, §5, §6, §7

In data set [6] the test system is PC3. Described as above. The settings on record: PC3, prostate cells. Also on record: key: +++: cells unaffected compared to shSCR (control); ++: cells modestly affected compared to shSCR (control); +: cells significantly affected compared to shSCR (control); 0: vast majority of cells killed compared to shSCR (control).
Text: as §4, §5, §6, §7

The next data set concerns T98G. The data set is described as above. Also on record: key: +++: cells unaffected compared to shSCR (control); ++: cells modestly affected compared to shSCR (control); +: cells significantly affected compared to shSCR (control); 0: vast majority of cells killed compared to shSCR (control). The settings on record: glioblastoma.
Text: as §4, §5, §6, §7

The next data set concerns U251MG. The data set is described as above. Also on record: key: +++: cells unaffected compared to shSCR (control); ++: cells modestly affected compared to shSCR (control); +: cells significantly affected compared to shSCR (control); 0: vast majority of cells killed compared to shSCR (control). The settings on record: glioblastoma.
Text: as §4, §5, §6, §7

The subject of the next data set is U343. The description is as above. Also on record: key: +++: cells unaffected compared to shSCR (control); ++: cells modestly affected compared to shSCR (control); +: cells significantly affected compared to shSCR (control); 0: vast majority of cells killed compared to shSCR (control). The settings on record: U343, glioblastoma.
Text: as §4, §5, §6, §7

As for `COc1cccc2c1C(=O)c1c(O)c3c(c(O)c1C2=O)C[C@@](O)(C(=O)CO)C[C@@H]3O[C@H]1C[C@H](N)[C@H](O)[C@H](C)O1` [doxorubicin], the IC50 in the data set on A172 [1] (A172, Glioblastoma, CTG 4 days after treatment, read-out: IC50) turned out to be 132 nM; with A172 [1] (A172 cells, CTG four days after exposure, read-out: IC50 of doxorubicin treatment), 132 nM; in the data set with HCC15 [2] (HCC15, Lung, CTG 4 days after treatment, read-out: IC50), 167 nM; in the data set on HCC15 [2] (HCC15 cells, CTG four days after exposure, read-out: IC50 of doxorubicin treatment), 167 nM; with DU145, 248 nM; with GM05659 it was 267 nM. For the same molecule, the IC50 in the data set with HEK293 stood at 29 nM; in the data set with MDA-MB-435S, 325 nM; in the data set on NCI-H460 it was 56 nM; in the data set on PC3 [3], 387 nM; in the data set with U251 it was 24 nM.
On to “shCD320: lentiviral shRNA targeting CD320 (NM_016579.3), location 1006-1026; SEQ ID NO. 943/944 (sense CCCTCAGAGACCTGAGCTCTT; antisense AAGAGCTCAGGTCTCTGAGGG) [lentiviral shRNA targeting CD320 (NM_016579.3), location 1006-1026; 943/944]”, for which the “cells affected compared to shSCR (control)” value in the data set on GM05659 fibroblasts is on record as “+++”; in the data set with A172 [4], “+”; in the data set on DU-145, “++”; with GM00701 it was “++”; in the data set with H157, “+”; with H1993 it was “++”. In addition, the “cells affected compared to shSCR (control)” value was “++” in the data set with H358; “+” with HCC15 [5]; “++” in the data set on LncAP; “++” in the data set on MDA-MB-4353; “+++” with PC3 [6]; “+++” with T98G. Also, the entries for the “cells affected compared to shSCR (control)” value in the data set on U251MG and with U343 were “+” and “+++”, respectively.
